We go through 108 molecules from PubChem BioAssay AID2745 (NMMLSC, 2010).

Each structure is given as a SMILES string.

This assay relates to S. cerevisiae LAP4-GFP reporter, flow cytometry fluorescence. As to the kind of experiment: concentration series on yeast TOR reporter LAP4 – cell-based, MLPCN hits, flow cytometry, dose response (AID 2745;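 note: yeast exposed to compound for three hours at 30 degrees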). (In general: In flow cytometry, cells or beads pass a laser one at a time.)

As usually defined, the EC50 is the concentration giving half of the maximal effect. For the molecule `CC(C)(C)n1nc(-c2ccc(Cl)cc2)c2c(N)ncnc21`, the EC50 is 4.82 µM. The figure for `CC(C)(C)c1nnc(N/N=C/c2cc(Br)ccc2O)n(N)c1=O` is 12.2 µM; for `CC(C)(C)C(=O)C(Cl)C(=O)Nc1ccccc1` (stereo not drawn) it is 14.6 µM.

Consider `O=c1[nH]c(-c2ccccn2)nc(C(F)(F)F)c1Br`, for which the EC50 is 2.55 µM. The same measure for `CCSc1nnc(NC(=O)c2ccccn2)s1`: 30.3 µM. Turning to `Cc1ccc2nc(Cl)c3nnnn3c2c1`, the EC50 is 3.84 µM. The figure for `O=C(Nc1nc(-c2ccccn2)cs1)C1COc2ccccc2O1` (stereo not drawn) is 3.9 µM; for `O=C(Nc1nnc(-c2ccc(Cl)cc2)o1)c1ccccc1Br` it is 4.31 µM. The same measure for `O=C(COc1ccc(F)cc1Cl)Nc1nc(-c2ccccn2)cs1`: 2.98 µM. As for `COc1ccccc1OCCCc1c(C)n[nH]c1C`, the EC50 is 20.1 µM. The same measure for `O=C1NC(=O)N(c2ccccc2)C(=O)/C1=C/c1ccc(Sc2ccccc2)o1`: 11.2 µM; for `O=C1ON=C(c2ccccc2)/C1=C/c1ccc(-c2ccccc2[N+](=O)[O-])o1`: 5 µM; for `Cc1ccc(/C=C/C(=O)c2ccccc(=O)c2O)c(C)c1`: 4.15 µM. The figure for `O=C(Nc1nc(-c2ccccn2)cs1)c1cc2ccccc2o1` is 4.09 µM; for `CC(C)Oc1ccc(C(=O)/C=C2/C(=O)Nc3ccccc32)cc1` it is 9.41 µM. The figure for `COc1cccc(C(=O)Nc2nnc(-c3ccc(Cl)cc3)o2)c1` is 3.84 µM; for `c1ccc(-c2cccc(-c3ccccn3)n2)nc1` it is 3.9 µM; for `Cc1cccc(C(=O)NC(=S)NNC(=O)Cc2ccccc2)c1` it is 10.9 µM. Take `O=C(Oc1ccnc2cc(Cl)ccc12)N1CCCCCC1`: the EC50 was 12.1 µM. Take `O=C(/C=C/c1ccccn1)c1cc(Br)ccc1O`: the EC50 was 4.09 µM. The same measure for `O=[N+]([O-])c1cc(Cl)cc(/C=N\Nc2ccccn2)c1O`: 3.33 µM; for `COc1cccc(/C=N/Nc2ncc(C(F)(F)F)cc2Cl)c1O`: 6.3 µM.

Take `Oc1c(I)cc(Cl)c2cccnc12`: the concentration for a half-maximal effect (EC50) is 0.986 µM. The same measure for `O=C(O)/C=C/C(=O)c1ccc2c(c1)CCc1ccccc1-2`: 1.2 µM; for `CN1CCN(C(c2ccc(C(F)(F)F)cc2)c2ccc3cccnc3c2O)CC1` (stereo not drawn): 6.72 µM; for `CCOC(=O)c1ccc(N=Cc2nc(-c3ccccc3)oc2OC(C)=O)cc1`: 25.9 µM.

On to `O=C(C#Cc1ccccc1)c1ccco1`, for which the EC50 was 5.17 µM. The same measure for `COc1cc(SSc2cc(OC)cc([N+](=O)[O-])c2N)c(N)c([N+](=O)[O-])c1`: 8.26 µM; for `COc1cccc(/C=C/C(=O)c2c(O)cc(C)oc2=O)c1O`: 4.42 µM. The same measure for `O=c1cc(CSc2ccc(Cl)cc2)nc(-c2ccccn2)[nH]1`: 6.28 µM.

Take `Cc1ccc(N/N=C(\C#N)C(N)=S)c(C)c1`: the concentration for a half-maximal effect (EC50) is 11.7 µM.

Consider `CCOC(=O)COc1ccc2ccccc2c1/C=C/[N+](=O)[O-]`, for which the concentration giving a half-maximal response (EC50) is 4.41 µM. The same measure for `COc1cccc(N=Nc2ccc(O)c3ncccc23)c1`: 3.36 µM; for `COc1cccc2sc(Nc3nc(-c4ccccn4)cs3)nc12`: 1.36 µM. The figure for `CN1CCN(C(=O)c2cc(COc3c(F)cccc3F)on2)CC1c1ccccc1` (stereo not drawn) is 6.66 µM; for `O=C(NC(=S)NNC(=O)c1cnccn1)c1ccc(Cl)cc1` it is 1.75 µM; for `O=C(COc1ccccc1)NNC(=S)NC(=O)c1ccc(Cl)cc1Cl` it is 17.8 µM.

Take `O=S1(=O)C=C(Sc2nc3ccccc3s2)c2ccccc21`: the EC50 is 3.29 µM.

`N/C(Cc1ccc(Cl)cc1Cl)=N\OC(=O)c1cccs1`: the half-maximal effective concentration (EC50) was 4.48 µM. The same measure for `O=C(/C=C/c1ccc(F)cc1)NC(=S)NNC(=O)c1cnccn1`: 1.54 µM. The same measure for `O=C(Oc1c(Cl)cc(Cl)c2cccnc12)c1cccc([N+](=O)[O-])c1`: 2.02 µM; for `O=C(OCn1ncc(Br)c(Br)c1=O)c1c(F)cccc1F`: 16.9 µM. The same measure for `Cc1cccc(C)c1NC(=O)C(Cl)C(=O)c1ccccc1` (stereo not drawn): 1.45 µM; for `O=C1NC(=O)C(=Cc2ccc(-c3ccc(Cl)cc3)o2)C(=O)N1`: 1.41 µM; for `Cc1[nH]n(-c2ccccc2)c(=O)c1C(c1ccccc1[N+](=O)[O-])C(C#N)C#N` (stereo not drawn): 7.67 µM. As for `Cc1cc(C(=O)Nc2nc(-c3ccccn3)cs2)ccc1[N+](=O)[O-]`, the EC50 is 6.15 µM.

For `ClC(Cl)(c1nnnn1-c1ccccc1)c1nnnn1-c1ccccc1`, the EC50 is 3.8 µM. The figure for `N#Cc1nccnc1S(=O)(=O)c1cccs1` is 14 µM; for `COc1ccc(/C=C2\C(=O)ON=C2c2ccccc2)cc1` it is 6.86 µM. The figure for `N/C(Cc1ccc(Cl)cc1)=N\OC(=O)c1ccccc1` is 4.4 µM; for `CCc1cc(C(=O)Nc2nc(-c3ccccn3)cs2)sc1C` it is 5.96 µM. As for `Cc1ccc(/C=C2/SC(=S)N(C3CCCCC3)C2=O)o1`, the EC50 is 13.3 µM. The figure for `COc1ccc(C(=O)NNC(=S)NC(=O)/C=C/c2cccs2)cc1` is 9.05 µM. The figure for `CCCCCCCCC/C(=N\O)c1ccccn1` is 6.13 µM; for `O=c1oc2cc(Oc3c([N+](=O)[O-])cc(C(F)(F)F)cc3[N+](=O)[O-])ccc2c2c1CCCC2` it is 3.04 µM; for `Cc1ccc(O)c(N=Nc2nccs2)c1` it is 4.52 µM. The same measure for `C/C(=N\NC(=O)c1cc2ccccc2cc1O)c1ccccn1`: 3.98 µM; for `Cc1cccnc1Nc1nc(-c2ccccn2)cs1`: 3.7 µM; for `CCN1/C(=C/C(C)=C/c2sc3ccccc3[n+]2CC)Sc2ccccc21`: 4.21 µM. On to `CC1=NNC(=O)/C1=C\c1cn(-c2ccccc2)nc1-c1ccccc1`, for which the EC50 is 7.23 µM.

In the case of `O=C(Nc1ccc(Cl)cc1Cl)c1cccc(N2C(=O)C=CC2=O)c1`, the EC50 was 3.92 µM. The same measure for `Cc1cc(C2CCCCC2)n(O)c(=O)c1`: 5.33 µM; for `Cc1ccc(/C=N/Nc2ncc(Cl)cc2Cl)s1`: 31.7 µM; for `O=C1C=C(c2ccccc2)C(=O)N1Nc1ccccc1`: 1.62 µM.

In the case of `Cc1ccc(C(=O)Oc2oc(-c3ccco3)nc2C=Nc2ccc(Cl)cc2)cc1`, the EC50 was 3.6 µM. The figure for `Cc1cc(C)c(S(=O)(=O)ON2C(=O)c3ccccc3C2=O)cc1C` is 3.12 µM. The same measure for `CCOC(=O)c1cc(-c2ccc(/C=C3/C(=O)NC(=O)C(C#N)=C3C)o2)ccc1Cl`: 1.36 µM. The figure for `Cc1cc(O)c(C(=O)/C=C/c2ccc(Cl)cc2)c(=O)o1` is 6.38 µM; for `Cc1ccc(NN2C(=O)C=C(c3ccc(Cl)cc3)C2=O)cc1` it is 0.691 µM; for `O=S(=O)(CCN(CCS(=O)(=O)C(F)(F)F)CC1CCCO1)C(F)(F)F` (stereo not drawn) it is 7.67 µM. For `Nc1ccc(Br)c2c1C(=O)c1ccccc1C2=O`, the concentration giving a half-maximal response (EC50) is 1.18 µM. The figure for `CNc1nc(N)c([N+](=O)[O-])c(Nc2cccc(F)c2)n1` is 5.5 µM.

As to `Clc1cccc(CN2COc3c(cc(Cl)c4cccnc34)C2)c1`, the EC50 is 8.55 µM.

For the molecule `Cc1[nH]c(-c2ccccn2)nc(=S)c1Cl`, the EC50 was 4.58 µM. The same measure for `N/C(Cc1ccc(Cl)c(Cl)c1)=N\OC(=O)c1cccs1`: 5.04 µM. The same measure for `CCOC(=O)CSC1=NC(=O)/C(=C/c2ccc(Br)cc2)S1`: 15 µM; for `CC1=NNC(=O)/C1=C\c1cn(-c2ccccc2)nc1-c1cccs1`: 1.32 µM. Regarding `O=C(Oc1c(Cl)cc(Cl)c2cccnc12)c1ccco1`, the EC50 is 2.46 µM. On to `O=c1/c(=C/c2cccc3ccccc23)sc2ncnn12`, for which the EC50 was 9.22 µM. The figure for `CC(C)(C)c1ccc(NC(=O)COC(=O)c2ccc([N+](=O)[O-])s2)cc1` is 3.72 µM. The same measure for `COc1cc(N2C(=O)C=CC2=O)c(OC)cc1Cl`: 1.44 µM; for `CS(=O)(=O)c1nc(-c2cccs2)cc(C(F)(F)F)n1`: 30.5 µM. The same measure for `Oc1ccc(Br)cc1/C=N/Nc1ccccn1`: 22.7 µM. In the case of `O=C1NC(=S)NC(=O)C1=Cc1ccc2c(c1)CCN2CCCCl`, the EC50 is 4.06 µM. The same measure for `O=C1C=CC(=O)N1N(c1ccccc1)c1ccccc1`: 2.7 µM; for `O=[N+]([O-])c1ccc(S(=O)(=O)c2cccc(C(F)(F)F)c2)nc1`: 21.5 µM. The figure for `CCCCC(=O)NNC(=S)NC(=O)c1ccc(C)cc1` is 11.3 µM; for `O=[N+]([O-])c1cc(Cl)c2cccnc2c1O` it is 0.859 µM; for `O=C1C=CC(=O)N1c1cccc(-c2ccccc2)c1` it is 0.385 µM. The figure for `COc1ccc(N2C(=O)/C(=C/c3cccs3)C(=O)NC2=S)cc1` is 1.32 µM; for `Cc1c(Cc2ccccc2)c(NCCN(C)C)n2c(nc3ccccc32)c1C#N` it is 29.9 µM; for `Oc1ccc2ccccc2c1N=Nc1nccs1` it is 8.45 µM. With `Oc1c(I)cc(I)c2cccnc12`, the 50% effective concentration (EC50) is 0.7 µM. In the case of `CNC(CC(=O)c1ccc([N+](=O)[O-])cc1)C(Cl)(Cl)Cl` (stereo not drawn), the EC50 is 1.34 µM. The figure for `O=C1C=CC(=O)N1c1ccc(O)cc1` is 4.09 µM.

`CC1=CC(=O)C(C(C)C)=C/C1=N/OS(=O)(=O)c1ccccc1`: the EC50 was 9.59 µM. The same measure for `COc1ccc([N+](=O)[O-])c(S(=O)(=O)c2ccc(Cl)cc2)n1`: 1.99 µM. The same measure for `CC(=O)c1ccc(N2CCN(C(=O)c3ccc(Br)cc3)CC2)c(F)c1`: 9.91 µM; for `N=C1S/C(=C\c2ccco2)C(=O)N1c1nccs1`: 4 µM; for `Cc1ccsc1/C=N/Nc1ncc(Cl)cc1Cl`: 6.19 µM. The same measure for `C/C(=N/NC(=O)c1ccc(C(C)(C)C)cc1)c1ccccn1`: 32.7 µM. For the molecule `CCn1c(=O)c(C(=O)Nc2nc3ccccc3[nH]2)c(O)c2ccccc21`, the EC50 is 0.45 µM. The figure for `COc1ccccc1N=Nc1ccc(O)c2ncccc12` is 4.25 µM. The same measure for `CC(C)(C)C(=O)NC(=S)NNC(=O)c1ccc(-c2ccccc2)cc1`: 7.51 µM; for `O=C1NC(=O)N(Cc2ccco2)C(=O)/C1=C/c1ccc(-c2cccc([N+](=O)[O-])c2)o1`: 6.36 µM. The figure for `Cn1ncc(S(=O)(=O)Cc2ccccc2)c(Cl)c1=O` is 4.01 µM; for `Cc1ccc(C(=O)NNC(=S)NC(=O)COc2ccccc2)cc1` it is 8.27 µM. Take `COc1ccc(C2=CC(=O)N(Nc3ccccc3)C2=O)cc1`: the EC50 is 9.78 µM.
